What all share (type): functional, organism-based
Test [1] concerns Plasmodium falciparum. Put plainly: Antimalarial activity against Chloroquine sensitive Plasmodium falciparum RKL-2 assessed as parasitic growth inhibition measured after 36 to 40 hrs by Giemsa staining based assay.
For test [2], the system named is Plasmodium falciparum. The experiment in a line: Antimalarial activity against Chloroquine resistant Plasmodium falciparum W2 assessed as parasitic growth inhibition measured after 48 hrs by fluorescence based assay. To be noted: W2, 48 h.
The subject of test [3] is Plasmodium falciparum. Put plainly: Antimalarial activity against Chloroquine sensitive Plasmodium falciparum assessed as parasitic growth inhibition.
The subject of test [4] is Plasmodium falciparum. The experiment in a line: Antimalarial activity against Plasmodium falciparum assessed as parasitic growth inhibition.
Test [5] deals with Plasmodium falciparum. Put plainly: Antimalarial activity against Plasmodium falciparum male gametocytes assessed as parasitic growth inhibition.
In test [6] the test system is Plasmodium falciparum. Put plainly: Antimalarial activity against Plasmodium falciparum female gametocytes assessed as parasitic growth inhibition.
The test system of test [7] is Plasmodium falciparum. Put plainly: Antimalarial activity against Chloroquine-pyrimethamine resistant Plasmodium falciparum W2 assessed as parasitic growth inhibition measured after 48 hrs. To be noted: W2, 48 h.
Test [8] relates to Plasmodium falciparum. The experiment in a line: Antimalarial activity against Chloroquine-pyrimethamine sensitive Plasmodium falciparum D6 assessed as parasitic growth inhibition measured after 48 hrs. To be noted: D6, 48 h.
Test [9] has as its system Plasmodium falciparum. Put plainly: Antimalarial activity against chloroquine sensitive Plasmodium falciparum 3D7 assessed as parasitic growth inhibition by SYBR Green I dye based assay.
The subject of test [10] is Plasmodium falciparum. The experiment in a line: Antimalarial activity against Chloroquine resistant Plasmodium falciparum assessed as parasitic growth inhibition by microscopic anlaysis.
Test [11] relates to Plasmodium falciparum. Put plainly: Antimalarial activity against chloroquine resistant Plasmodium falciparum F32 assessed as parasitic growth inhibition measured after 48 hrs. To be noted: F32, 48 h.
For test [12], the system named is Plasmodium falciparum. Put plainly: Antimalarial activity against chloroquine resistant Plasmodium falciparum K1 assessed as parasitic growth inhibition measured after 48 hrs. To be noted: K1, 48 h.
For test [13], the system named is Plasmodium falciparum. Put plainly: Antimalarial activity against mefloquine resistant Plasmodium falciparum K1 assessed as parasitic growth inhibition measured after 48 hrs. To be noted: K1, 48 h.
The test system of test [14] is Plasmodium falciparum. Put plainly: Antimalarial activity against mefloquine resistant Plasmodium falciparum FcB1 assessed as parasitic growth inhibition measured after 48 hrs. To be noted: FcB1, 48 h.
The subject of test [15] is Plasmodium falciparum. Put plainly: Antimalarial activity against chloroquine resistant Plasmodium falciparum FcB1 assessed as parasitic growth inhibition measured after 48 hrs. To be noted: FcB1, 48 h.
The subject of test [16] is Plasmodium falciparum. Put plainly: Antimalarial activity against mefloquine resistant Plasmodium falciparum Thai assessed as parasitic growth inhibition measured after 48 hrs.
Test [17] relates to Plasmodium falciparum. The experiment in a line: Antimalarial activity against mefloquine resistant Plasmodium falciparum F32 assessed as parasitic growth inhibition measured after 48 hrs. To be noted: F32, 48 h.
The subject of test [18] is Plasmodium falciparum. Put plainly: Antimalarial activity against chloroquine resistant Plasmodium falciparum Thai assessed as parasitic growth inhibition measured after 48 hrs.
Test [19] has as its system Plasmodium falciparum. The experiment in a line: Antimalarial activity against Chloroquine sensitive Plasmodium falciparum 3D7 assessed as parasitic growth inhibition measured after 24 hrs. To be noted: 3D7, 24 h.
The subject of test [20] is Plasmodium falciparum. Put plainly: Antimalarial activity against Plasmodium falciparum male gametocytes assessed as parasitic growth inhibition by exflagellation assay.
Test [21] concerns Plasmodium falciparum. The experiment in a line: Antimalarial activity against Chloroquine sensitive Plasmodium falciparum RKL-9 assessed as parasitic growth inhibition measured after 36 to 40 hrs by Giemsa staining based assay.
Test [22] concerns Plasmodium falciparum. Put plainly: Antimalarial activity against Plasmodium falciparum 3D7 assessed as parasitic growth inhibition measured after 72 hrs by SYBR Green dye based assay. To be noted: 3D7, 72 h.

These results are taken from ChEMBL document CHEMBL5329153, “Is structural hybridization invoking new dimensions for antimalarial drug discovery research?” (RSC Med Chem, 2023).

By IC50 is commonly meant the concentration that inhibits the measured activity by half. The EC50 is the concentration at which the effect is half-maximal.

The structures appear in SMILES notation. ≈ marks a conversion by molar mass, not a printed value.

As for `Fc1ccc(Nc2nc(NCCCNc3ccnc4cc(Cl)ccc34)nc(Nc3ccc(F)c(Cl)c3)n2)cc1Cl`, the 50% inhibitory concentration (IC50) in the test with Plasmodium falciparum [1] turned out to be 56 µg/mL.

Consider `O=C1c2ccc(N3CCOCC3)cc2C(=O)N1CCCCCCNc1ccnc2cc(Cl)ccc12`, for which the IC50 with Plasmodium falciparum [2] came to 0.019 µM.

With `CC1=C(C(=O)Nc2ccc(Br)cn2)C(c2cn(-c3ccccc3)nc2-c2ccc([N+](=O)[O-])cc2)NC(=O)N1` (configuration not stated), the IC50 with Plasmodium falciparum [3] was determined as 0.06 µg/mL (≈ 0.104 µM).

For `CC1=C(C(=O)Nc2ccc(Br)cn2)C(c2cn(-c3ccccc3)nc2-c2ccc(Cl)cc2)NC(=O)N1` (configuration not stated), the IC50 in the test on Plasmodium falciparum [3] was determined as 0.03 µg/mL (≈ 0.0532 µM).

With `Cc1nc2ccccc2c(C)c1C(=O)NNC(=S)Nc1ccc([N+](=O)[O-])cc1`, the IC50 in the test with Plasmodium falciparum [4] was determined as 0.25 µg/mL (≈ 0.632 µM).

As for `OC(c1cc(C(F)(F)F)nc2c(C(F)(F)F)cccc12)C1CCCCN1` (configuration not stated) [MEFLOQUINE], the IC50 in the test with Plasmodium falciparum [5] was determined as 16.5 µM; in the test on Plasmodium falciparum [6], 5.6 µM.

In the case of `N=C(N=C(N)N)SCCCCNc1ccnc2cc(C(F)(F)F)ccc12`, the values for the concentration for half-maximal inhibition (IC50) in the test with Plasmodium falciparum [7] and in the test on Plasmodium falciparum [8] were 6.06 µM and 2.8 µM, respectively.

For `O=C1c2ccc(N3CCN(CCO)CC3)cc2C(=O)N1CCNc1ccnc2cc(Cl)ccc12`, the IC50 with Plasmodium falciparum [2] was 0.044 µM.

`CCCCNc1c2ccc(Cl)cc2nc2ccc(OC)cc12`: the IC50 in the test with Plasmodium falciparum [9] turned out to be 0.0264 µM.

In the case of `O=C(NNC(=S)Nc1ccccc1)c1cc(-c2c(F)cccc2F)nc2ccc(C(F)(F)F)cc12`, the IC50 with Plasmodium falciparum [10] turned out to be 0.19 µg/mL.

In the case of `O=C1c2ccc(N3CCN(CCO)CC3)cc2C(=O)N1CCCCNc1ccnc2cc(Cl)ccc12`, the IC50 in the test on Plasmodium falciparum [2] turned out to be 0.014 µM.

For the molecule `CC1=C(C(=O)Nc2ccc(Br)cn2)C(c2cn(-c3ccccc3)nc2-c2ccc(F)cc2)NC(=O)N1` (configuration not stated), the IC50 in the test on Plasmodium falciparum [3] amounted to 0.07 µg/mL (≈ 0.128 µM).

Regarding `CC1=C(CN2CCCCC2C(O)c2cc(C(F)(F)F)nc3c(C(F)(F)F)cccc23)[C@@H]2C[C@@H](C)C[C@@H]3C[C@]4(C)CC[C@@H](O1)[C@@]32OO4` (some centres not stated), the IC50 in the test on Plasmodium falciparum [11], in the test with Plasmodium falciparum [12], in the test on Plasmodium falciparum [13], with Plasmodium falciparum [14], in the test on Plasmodium falciparum [15] and in the test on Plasmodium falciparum [16] was 0.0024 µM each time. Moreover, the IC50 in the test on Plasmodium falciparum [17] and in the test with Plasmodium falciparum [18] was 0.0024 µM each time.

For `Cc1ccc(-c2nn(-c3nc4ccccc4s3)cc2/C=N\c2cccc(Cl)c2)cc1`, in the test with Plasmodium falciparum [19], the EC50 turned out to be 1.95 µM.

Take `CC.Fc1ccc(Nc2nc(NCCCNc3ccnc4cc(Cl)ccc34)nc(Nc3ccc(F)cc3)n2)cc1`: the IC50 with Plasmodium falciparum [1] came out at 51.5 µg/mL.

Turning to `O=C1c2cccc(N3CCOCC3)c2C(=O)N1CCCCNc1ccnc2cc(Cl)ccc12`, in the test with Plasmodium falciparum [2], the IC50 is 0.071 µM.

For the molecule `Clc1ccc2c(NCCCNc3nc(Nc4ccc(N5CCOCC5)cc4)nc(Nc4ccc(N5CCOCC5)cc4)n3)ccnc2c1`, the IC50 in the test on Plasmodium falciparum [1] came out at 47.5 µg/mL.

`C[C@@H]1CC[C@H]2[C@@H](C)C(=O)O[C@@H]3O[C@@]4(C)CC[C@@H]1[C@]32OO4` [ARTEMISININ]: the IC50 with Plasmodium falciparum [20] was 0.12 µM; in the test on Plasmodium falciparum [5], 12.7 µM; in the test with Plasmodium falciparum [6], 0.3 µM.

In the case of `CCCCNC(=S)NNC(=O)c1cc(-c2ccc(F)cc2)nc2c(Cl)cc(C(F)(F)F)cc12`, the IC50 with Plasmodium falciparum [10] worked out at 0.28 µg/mL.

Consider `O=C1C(O)=C(NCCNc2ccnc3cc(Cl)ccc23)C(=O)c2ccccc21`, for which the IC50 was found to be 0.391 µM in the test with Plasmodium falciparum [1] and 0.684 µM in the test with Plasmodium falciparum [21].

Regarding `C[C@H]1[C@H](OC(=O)CCC(=O)Oc2ccc(Nc3ncnc4ccccc34)cc2)O[C@@H]2O[C@@]3(C)CC[C@H]4[C@H](C)CC[C@@H]1[C@@]24OO3`, the EC50 in the test on Plasmodium falciparum [22] is 0.0038 µM.

In the case of `CCc1nc(N)nc(N)c1-c1ccc(Cl)cc1` [PYRIMETHAMINE], the IC50 with Plasmodium falciparum [3] stood at 0.25 µg/mL (≈ 1.01 µM).

Turning to `O=C1c2cccc(N3CCOCC3)c2C(=O)N1CCCCCCNc1ccnc2cc(Cl)ccc12`, the IC50 with Plasmodium falciparum [2] stood at 0.025 µM.

Turning to `Cc1nc2ccccc2c(C)c1C(=O)NNC(=S)Nc1ccc(F)cc1F`, the 50% inhibitory concentration (IC50) with Plasmodium falciparum [4] turned out to be 0.26 µg/mL (≈ 0.673 µM).

Take `C=C[C@H]1CN2CC[C@H]1C[C@H]2[C@H](O)c1ccnc2ccc(OC)cc12` [QUININE]: the IC50 in the test with Plasmodium falciparum [10] came out at 0.268 µg/mL.

In the case of `N=C(N=C(N)N)SCCCNc1ccnc2cc(C(F)(F)F)ccc12`, the IC50 in the test on Plasmodium falciparum [7] turned out to be 3.21 µM; in the test with Plasmodium falciparum [8] it was 2.85 µM.

For the molecule `O=C1C(O)=C(N2CCN(c3ccnc4cc(Cl)ccc34)CC2)C(=O)c2ccccc21`, the IC50 in the test on Plasmodium falciparum [1] was 0.391 µM; with Plasmodium falciparum [21] it was 1.09 µM.

As for `COc1ccc2nc3cc(Cl)ccc3c(NCC3C(=O)c4ccc5c6c(ccc(c46)C3=O)C(=O)N(CCn3ccnc3)C5=O)c2c1`, the IC50 in the test with Plasmodium falciparum [9] came out at 0.00844 µM.
